Experimental data taken from US20100144675A1, “Regulation of sGC Function by Corrin Derivatives” (priority 2007, published 2010).

Columns and labels:
[1] = biological target: T1, recombinant human α1/β1 sGC (Homo sapiens, UniProt Q02108+Q02153); assay: cGMP production by purified recombinant sGC (activation by tetrapyrroles); type: biochemical; conditions: for shift of EC50 of sGC activation in the combination: FIG. 4D/4E; for concentration at which sGC activation is maximal (dose response): dose response of corrins, FIG. 4C
T1 construct: made in house
T1 sequence (Q02108 1-690): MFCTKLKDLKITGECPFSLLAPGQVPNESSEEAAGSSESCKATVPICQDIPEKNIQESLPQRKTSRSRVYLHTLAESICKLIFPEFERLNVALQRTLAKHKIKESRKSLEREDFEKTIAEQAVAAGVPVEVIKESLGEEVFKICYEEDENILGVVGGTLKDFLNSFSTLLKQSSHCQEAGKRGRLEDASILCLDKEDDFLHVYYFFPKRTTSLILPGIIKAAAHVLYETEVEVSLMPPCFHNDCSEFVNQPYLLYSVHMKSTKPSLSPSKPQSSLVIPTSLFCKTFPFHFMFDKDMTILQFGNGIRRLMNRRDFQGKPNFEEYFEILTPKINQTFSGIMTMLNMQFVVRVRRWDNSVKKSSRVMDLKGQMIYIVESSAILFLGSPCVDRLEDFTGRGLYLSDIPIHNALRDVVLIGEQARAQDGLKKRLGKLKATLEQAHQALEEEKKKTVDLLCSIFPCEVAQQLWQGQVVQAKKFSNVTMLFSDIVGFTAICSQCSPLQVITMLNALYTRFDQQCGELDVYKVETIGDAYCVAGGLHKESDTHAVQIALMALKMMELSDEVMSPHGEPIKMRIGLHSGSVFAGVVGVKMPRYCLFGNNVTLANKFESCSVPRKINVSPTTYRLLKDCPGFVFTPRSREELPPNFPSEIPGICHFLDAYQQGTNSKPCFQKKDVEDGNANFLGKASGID
T1 sequence (Q02153 1-619): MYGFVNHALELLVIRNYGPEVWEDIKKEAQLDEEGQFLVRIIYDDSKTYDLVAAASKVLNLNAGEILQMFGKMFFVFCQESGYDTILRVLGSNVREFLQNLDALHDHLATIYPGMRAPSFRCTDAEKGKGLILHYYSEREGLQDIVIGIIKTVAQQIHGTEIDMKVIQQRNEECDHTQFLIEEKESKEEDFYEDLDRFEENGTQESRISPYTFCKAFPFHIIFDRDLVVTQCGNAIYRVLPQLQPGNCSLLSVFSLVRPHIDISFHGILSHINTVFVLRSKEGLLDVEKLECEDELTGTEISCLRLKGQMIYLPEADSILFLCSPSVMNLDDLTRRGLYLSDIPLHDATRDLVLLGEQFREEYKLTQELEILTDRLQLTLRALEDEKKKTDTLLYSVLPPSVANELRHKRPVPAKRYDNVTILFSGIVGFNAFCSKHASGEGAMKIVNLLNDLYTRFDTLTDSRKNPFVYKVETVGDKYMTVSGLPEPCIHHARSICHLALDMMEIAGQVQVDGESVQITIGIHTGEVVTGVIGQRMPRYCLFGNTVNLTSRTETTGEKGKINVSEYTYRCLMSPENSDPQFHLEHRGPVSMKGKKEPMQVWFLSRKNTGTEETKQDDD
Description: FIG. 4. Effect of tetrapyrroles on sGC activity in vitro. A. cGMP production by recombinant human α1/β1 sGC induced by 50 μM factor B, bilirubin, nitrite ionophore 1, uroporphyrin I, or protoporphyrin IX. B. cGMP production by recombinant human α1/β1 sGC induced by 50 μM factor B, bilirubin, nitrite ionophore 1, uroporphyrin I, or protoporphyrin IX alone or in the presence of 1 μM BAY41-2272 or HMR1766. C. cGMP production by recombinant al (31 sGC in response to increasing concentration of protoporphyrin, factor B, vitamin B12 and vitamin B12a. D. cGMP production by recombinant human al/131 sGC induced by various doses of factor B at various doses of BAY41-2272. E. cGMP production by recombinant human α1/β1 sGC induced by various doses of factor B at various doses of BAY41-2272.
Activation of purified sGC by various tetrapyrroles. […] Methods of recombinant expression and purification of human α1/β11 isoform of sGC have been developed^23, 24. Measurements of enzymatic activity and multiple spectral studies performed using this recombinant enzyme^10, 23, 25 indicate that these recombinant preparations have identical properties as the native enzyme. We tested a series of tetrapyrrole compounds (FIG. 3), which are structurally related to PPIX. Similar to PPIX, majority of the tested tetrapyrroles contain four pyrrole rings connected to form a microcycle. In the case of billirubin, however, the microcycle is interrupted. […] We then compared fB with vitamin B12 (cyanocobalamine) or its derivative B12a (aquacobalamine) and PPIX, all at 50 μM. […] HMR1766 was kindly provided by Sanofi-Avantis (see a letter attached).

rat aortic rings [2] = assay: Relaxation of phenylephrine-preconstricted isolated rat aortic rings; type: cell-based, Sprague Dawley rats; conditions: for vascular relaxation of preconstricted aortic rings: 1 μM phenylephrine preconstriction, cumulative addition
Description: FIG. 5. Synergistic effect of corrin derivatives and BAY41-2272 on relaxation of rat aortic rings. The measurements were performed in the presence of corrin derivatives±BAY41-2272 as described in the text. Data are average of two aortic rings per each dose-response curve. Arrow indicates the shift in the effective dose and increased response.
FB-dependent relaxation of isolated rat aorta. In addition to in vitro analysis of sGC activity, we tested whether fB and vitamin B12 derivatives will induce relaxation of preconstricted rat aortic rings. The descending thoracic aorta was excised from freshly sacrificed Sprague Dawley rats, cleaned of adherent tissue and cut into 3-4 mm rings. Each ring was suspended between two wires hooks and mounted under 1 mN of passive tension in 4 ml organ chambers filled with Krebs' solution at 37° C., pH 7.4 and continuously aerated with 95% O2/5% CO2. The changes in isometric tension were measured by a force transducer (Grass Instruments, USA) connected to a PowerLab 400™ data-acquisition system (ADInstruments, Colorado Springs, Mass., USA). Ring preparations were equilibrated for 1 h before the start of the experiments. After the equilibration period, rings were preconstricted with 1 μM phenylephrine and maximal contractile response is determined. After maximal constriction the agonists (vitamin B12, methyl-B12, fB, BAY41-2272) were added cumulatively and changes in isometric tension determined. […] In the presence of a low dose of BAY41-2272 (0.1 μM) EC50 of fB decreased while the response increased.

anesthetized rats = assay: Blood pressure (MAP) and cardiac output in instrumented anesthetized rats; type: in vivo, Sprague Dawley rats; conditions: for change in blood pressure after bolus: 500 μl bolus into abdominal aorta, fB at 5 and 15 mg/ml or 100 μg/kg BAY41-2272; for change in cardiac output after bolus: 500 μl bolus, data not shown
Description: FIG. 6. Effect of factor B and BAY41-2272 on mean arterial pressure (MAP) in instrumented anesthetized rats. Indicated amount of drugs were delivered as a 500 μl bolus through a catheter into the abdominal aorta and MAP were recorded as described in section D1.2. “Contr”—500 μl of saline,
Effect of factor B and BAY41-2272 on blood pressure of anesthetized rats. We also measured the effect of bolus application of fB on changes in hemodynamic parameters in anesthetized rats. Sprague Dawley rats were surgically implanted with a 10-MHz pulsed Doppler flow and a displacement probe around the ascending aorta and sutured to the left ventricular wall, respectively. A Tygon catheter was placed into the abdominal aorta via the femoral artery. After recovery the animals were anesthetized with halothane, intubated, and ventilated under isothermic conditions. Changes in systolic, diastolic, mean arterial pressures and cardiac output were recorded and processed with a multichannel-pulsed Doppler flow/dimension system and digitized (A/D converter). Before experimental treatments with fB and/or BAY41-2272 the animals were treated with a bolus of 30 μg/kg of sodium nitroprusside to confirm the integrity of the catheter and delivery system and the responsiveness of animals to drugs. After the baseline was established a 500 μl bolus of fB at 5 and 15 mg/ml or 100 μg/kg of BAY41-2272 (Alexis, San Diego, Calif., USA) was delivered and the changes in blood pressure (FIG. 6A). and cardiac output were recorded (data not shown).

rat aortic rings [3] = assay: cGMP levels in treated rat aortic rings; type: cell-based; conditions: 5 minutes incubation, 37° C., in combination with BAY 41-2272
Description: FIG. 7. Changes in cGMP levels in rat aortic rings. Aortic rings were incubated with saline or saline with factor B in the presence or absence of BAY 41-2272 for 5 minutes at 37° C. cGMP was extracted and quantified.
Changes in cGMP levels in isolated rat aorta treated with factor B and BAY 41-2272. In order to confirm that relaxation of blood vessels and decreased blood pressure in response to factor B is dependent on sGC activity we measured cGMP levels in treated aortic rings.

sGC = conditions: cited from earlier work
[4] = combination of BAY41-2272 and fB
[5] = in the presence of 0.1 μM BAY41-2272
[6] = fB together with 100 μg/kg BAY41-2272, FIG. 6B

With `C/C1=C2/[N-]C([C@H](CC(N)=O)[C@@]2(C)CCC(=O)NCC(C)O)[C@]2(C)N=C(/C(C)=C3N=C(/C=C4N=C1[C@@H](CCC(N)=O)C\4(C)C)[C@@H](CCC(N)=O)[C@]\3(C)CC(N)=O)[C@@H](CCC(N)=O)[C@]2(C)CC(N)=O.[C-]#N.[C-]#N.[Co]` (some centres unmarked) [factor B, dicyanocobinamide] the “sGC activation in combination with HMR1766, FIG. 4B” value ([1]; 50 μM with 1 μM HMR1766) was “even more effective than PPIX/HMR1766”, the “sGC activation compared with vitamin B12, B12a and PPIX, FIG. 4B” value ([1]; all at 50 μM) was “effective activator of sGC” and the “sGC activation by the combination (synergy)” value [1, 4] was “synergistically enhanced the enzyme”. For the same molecule, the “shift of EC50 of sGC activation in the combination” value [1, 4] was “shifted the EC50 to lower concentrations”, the “concentration at which sGC activation is maximal (dose response)” value (“concentration” below) [1] was “did not reach maximum in the tested range of concentrations” and the “sGC activation (cGMP production), FIG. 4A” value ([1]; tetrapyrrole alone at 50 μM) was “significantly activated sGC”. The “vascular relaxation of preconstricted aortic rings” value (shortened to “vascular relaxation”) (rat aortic rings [2]) was “can induce vascular relaxation”, the “EC50 of aortic ring relaxation” value (rat aortic rings [2]; [5]) was “decreased” and the relaxation response (rat aortic rings [2]; [5]) was “increased”. The “change in blood pressure after bolus” value (anesthetized rats) was “Transient decreased in blood pressure”, the “change in cardiac output after bolus” value (anesthetized rats) was “increased cardiac output” and the “baseline to which MAP was restored, versus BAY41-2272 alone” value (anesthetized rats; combined fB/BAY41-2272 treatment, FIG. 6B) was “even lower and more prolonged”. The “amplitude of drop in blood pressure” value (anesthetized rats; [6]) was “enhanced the amplitude of BAY41-2272-induced drop in blood pressure”, the “time of acutely decreased blood pressure” value (anesthetized rats; [6]) was “significantly prolonged” and the “levels of cGMP in aortic rings” value (rat aortic rings [3]) was “increased”.

For `[N]=O` [NO, nitric oxide], the “increase in rate of cGMP production” value (sGC; high-output state) is given as greater than 100 fold.

In the case of `[C-]#[O+]` [CO, carbon monoxide], the “cGMP produced compared to the resting enzyme” value (sGC; low-output state) is listed as 3-4 time.

With `C/C1=C2/[N-][C@H]([C@H](CC(N)=O)[C@@]2(C)CCC(=O)NC[C@@H](C)OP(=O)([O-])OC2C(O)[C@@H](n3cnc4cc(C)c(C)cc43)O[C@H]2CO)[C@]2(C)N=C(/C(C)=C3N=C(/C=C4N=C1[C@@H](CCC(N)=O)C\4(C)C)[C@@H](CCC(N)=O)[C@]\3(C)CC(N)=O)[C@@H](CCC(N)=O)[C@]2(C)CC(N)=O.O.[Co+2]` (some centres unmarked) [vitamin B12a, aquacobalamine, reference compound] the “concentration” value [1] was 50 µM.

In the case of `Nc1nc(-c2nn(Cc3ccccc3F)c3ncccc23)nc(N)c1N1CCOCC1` [BAY41-2272, reference compound], the “shift of EC50 of sGC activation in the combination” value [1, 4] is reported as “shifted the EC50 to lower concentrations”, the MAP after administration (anesthetized rats; 100 μg/kg BAY41-2272 alone) is reported as “stabilize their MAP at lower values” and the “time lower MAP is maintained” value (anesthetized rats; 100 μg/kg BAY41-2272 alone) is reported as “at least 30 minutes”. The “change in blood pressure after bolus” value (anesthetized rats) was “Transient decreased in blood pressure” and the “change in cardiac output after bolus” value (anesthetized rats) was “increased cardiac output”.

In the case of `C/C1=C2/[N-][C@H]([C@H](CC(N)=O)[C@@]2(C)CCC(=O)NC[C@H](C)OP(=O)([O-])O[C@H]2[C@@H](O)[C@@H](n3cnc4cc(C)c(C)cc43)O[C@@H]2CO)[C@]2(C)N=C(/C(C)=C3N=C(/C=C4N=C1[C@@H](CCC(N)=O)C\4(C)C)[C@@H](CCC(N)=O)[C@]\3(C)CC(N)=O)[C@@H](CCC(N)=O)[C@]2(C)CC(N)=O.[CH3-].[Co+3]` [methyl-B12, methylcobalamin, reference compound], the “vascular relaxation” value (rat aortic rings [2]) is reported as “can induce vascular relaxation”.

In the case of “cyanocobalamin [vitamin B12, reference compound]”, the “concentration” value [1] is reported as 50 µM and the “vascular relaxation” value (rat aortic rings [2]) is reported as “can induce vascular relaxation”.
